We go through three molecules from US20250034186A1, “ANTIVIRAL COMPOUNDS” (priority 2020, published 2025).

In one data set the test system is HCV replicon 1B. Description: HCV Rep 1B EC50. To be noted: for EC50: Hepatitis C virus, 72 h, HCV replicon cells, 3 days. The format is cell-based. The procedure: Compounds were serially diluted in ten steps of 1:3 dilutions in 384-well plates. All serial dilutions were performed in four replicates per compound within the same 384-well plate. […] To each well of a black polystyrene 384-well plate (Greiner Bio-one, Monroe, NC), 90 μL of cell culture medium (without Geneticin) containing 2000 suspended HCV replicon cells was added with a Biotek μFlow workstation. For compound transfer into cell culture plates, 0.4 μL of compound solution from the compound serial dilution plate was transferred to the cell culture plate on a Biomek FX workstation. The DMSO concentration in the final assay wells was 0.44%. The plates were incubated for 3 days at 37° C. with 5% CO2 and 85% humidity. The HCV replicon assay was a multiplex assay, able to assess both cytotoxicity and antireplicon activity from the same well. The CC50 assay was performed first. The media in the 384-well cell culture plate was aspirated, and the wells were washed four times with 100 μL of PBS each, using a Biotek ELX405 plate washer. A volume of 50 μL of a solution containing 400 nM calcein AM (Anaspec, Fremont, CA) in 1×PBS was added to each well of the plate with a Biotek μFlow workstation. The plate was incubated for 30 min at room temperature before the fluorescence signal (excitation 490 nm, emission 520 nm) was measured with a Perkin-Elmer Envision plate reader. The EC50 assay was performed in the same wells as the CC50 assay. The calcein-PBS solution in the 384-well cell culture plate was aspirated with a Biotek ELX405 plate washer. A volume of 20 μL of Dual-Glo luciferase buffer (Promega, Madison, WI) was added to each well of the plate with a Biotek μFlow Workstation. The plate was incubated for 10 min at room temperature. […] The plate was then incubated at room temperature for 10 min before the luminescence signal was measured with a Perkin-Elmer Envision Plate Reader.

A further data set can be described thus: PHH cytotoxicity assay. It counts as cell-based. The settings on record: human, fresh primary hepatocytes (PHH), daily replacement. The procedure:
Three-fold serial dilutions of the compound of Formula I and compounds 1, 2 and 6 were prepared in duplicate in 96-well plates starting at a concentration of 50 or 100 μM. Fresh human hepatocytes were ordered in a 96-well plate format from BioIVT (Baltimore, Maryland, Cat #F/M91565) with a Matrigel overlay or Invitrogen (Durham, North Carolina, Cat #HMFY96) with a Geltrex overlay. Donor profiles were limited to 4-65-year old with minimal alcohol consumption. PHH cells were allowed to recover 4-24 hours in complete medium with added supplement supplied by the vendor at 37° C. in a 5% CO2 incubator with 90% humidity before treated with compounds. Serial-diluted compounds and complete medium were replaced (130 μL/well) daily for 5 days, with final amount of DMSO equal to 0.5%. On Day 5, medium was removed from the assay plates and cell viability was determined by the addition of 100 μL Cell-Titer Glo viability reagents (Promega, Madison, WI, Cat #G7573) added to each well. Following 5-10 minutes incubation at room temperature, luminescence signal was quantified on a Victor Luminescence plate reader (Perkin-Elmer, Waltham, MA).

The nature of data set [1]: PBMC in-vitro intracellular triphosphate formation assay. The format is in vitro ADME. To be noted: 2 μM, 2 hours incubation, compared to compound 2 and/or 6 (FIG. 2). The procedure: In-vitro intracellular triphosphate formation was measured for the compound of Formula I and compounds 2 and 6 using the following protocol. Freshly-isolated PBMC's were derived from a healthy donor and were suspended to a concentration of 5 million cells/mL in culture medium ([…] containing L-glutamine) prior to the start of the experiment. 10 mL aliquots of PBMCs were transferred to 50 mL conical tubes with loosened caps and compounds were added to a final concentration of 2 μM. 1 mL aliquots were then transferred to the wells of a 24-well plate per sample. The PBMC-compound mixtures were incubated for 2 hours at 37° c./5% CO2 under gentle agitation. Following incubation, PBMCs were spun at 5000 RPM for 3 min and supernatants were aspirated without disturbing the cell pellet. For samples undergoing immediate analysis, samples were resuspended in pre-cooled 1× Tris-buffered saline and were transferred to 1.5 mL conical tubes containing 0.5 mL of nyosil M25. Samples/Oil aliquots were then spun for 1 min at 13,000 RPM. Following centrifugation, all media was aspirated from the tubes without disturbing the oil layer. Water was added on top of the oil layer and the spinning/aspiration process was repeated followed by an additional water wash. […]

In the case of `CCC(CC)COC(=O)[C@H](C)NP(=O)(OC[C@@]1(C#N)O[C@@H](c2ccc3c(N)ncnn23)[C@H](O)[C@@H]1O)Oc1ccccc1` (stereo partly drawn) [Compound 2, reference compound], the EC50 in the data set with HCV replicon 1B was determined as 2.78 µM. In other words, the single-digit micromolar range.

The molecule `CCC(CC)COC(=O)[C@H](C)N[P@](=O)(OC[C@@]1(C#N)O[C@@H](c2ccc3c(N)ncnn23)[C@H](O)[C@@H]1O)Oc1ccccc1` [Compound 6, 2-ethylbutyl ((S)-(((2R,3S,4R,5S)-5-(4-aminopyrrolo[2,1-f][1,2,4]triazin-7-yl)-2-cyano-3,4-dihydroxytetrahydrofuran-2-yl)methoxy)(phenoxy)phosphoryl)alaninate] came in with a CC50 at 5 days in the data set “PHH cytotoxicity assay” of 14.1 µM.

Regarding `C[C@H](N[P@](=O)(OC[C@@]1(C#N)O[C@@H](c2ccc3c(N)ncnn23)[C@H](O)[C@@H]1O)Oc1ccccc1)C(=O)OC1CCCCC1` [Formula I, cyclohexyl ((S)-(((2R,3S,4R,5S)-5-(4-aminopyrrolo[2,1-f][1,2,4]triazin-7-yl)-2-cyano-3,4-dihydroxytetrahydrofuran-2-yl)methoxy)(phenoxy)phosphoryl)-L-alaninate], it took 21.2 µM to reach half-maximal cytotoxicity in “PHH cytotoxicity assay” (CC50 at 5 days). The “in-vitro intracellular NTP formation in PBMCs” value in data set [1] is given as “lower”. Further, in the data set with HCV replicon 1B (EC50 ratio vs compound 2), the “times more potent relative to compound 2, HCV Rep 1B” value is on record as “about 3.5 times”. Moreover, the response in the data set with HCV replicon 1B was half-maximal at 0.793 µM (EC50).
